Test results from US4784988A, “Peptides correlated to lysozyme” (Spa Societa' Prodotti Antibiotici S.p.A., priority 1985, dated 1988).
Where no end group is shown, it is not given here.

Key:
[1] = assay type: physicochemical
Method: Having obtained the desired peptide sequence, it is then necessary to proceed with the splitting from the solid support and deprotection of the residual functional groups, which is carried out by action of gaseous hydrobromic acid on the peptide-resin suspension, working in trifluoroacetic acid and in presence of adequate quantities of anisole.

[2] = system: hyperalgesia of the paw; assay: Randall-Selitto test, painful threshold on compression of the paw made hyperalgesic with brewer's yeast; assay type: in vivo, rats; settings: rat, brewer's yeast 10 mg/rat, product injected in the paw, after 3 hours, vs irritant alone
Excerpt: With regard to the biological activity of the peptide mixtures obtained by enzymatic hydrolysis of lysozyme, like many of the peptides isolated at the pure state and/or reproduced through synthesis, it is observed, as previously reported, that they lack the bacteriolytic activity typical of the integral lysozyme structure, whereas they present important pharmacological and therapeutic properties. It was therefore possible for example to evidence a marked analgesic activity of numerous peptides, by testing their anti-nociceptive effects on laboratory animals using the well-known Randall-Selitto method.
In groups of 5-10 rats, hyperalgesia of the paw is induced by administering an irritant agent, for example brewer's yeast (10 mg/rat), into the planter aponeurosis and at the same time injecting the product under test at different doses. One group of rats is treated with the irritant agent alone. At intervals, in particular after 3 hours, the painful threshold on compression of the edematous paw is measured, i.e. the minimum pressure (in g) causing the sudden withdrawal of the paw of the animal.
The results are expressed as percentage increase in the mean painful threshold compared to the paw treated with the algogenic agent alone (without the drug). As an example, the data relative to the peptide mixture denominated "Fraction P.2" of chromatographic origin (See Scheme 1) are reported, as well as the individual peptides (I), (II) and (III).

[3] = system: cell colony-forming capacity; assay type: cell-based
[4] = system: herpes simplex Type 1; assay: herpes simplex virus plaque formation on Vero cell monolayers; assay type: cell-based; settings: herpes simplex Type 1, Vero cells, 72 hours' incubation
Method: Yet other example, the mixture and the peptides of the present invention resulted active in an antiviral sense in numerous cases. They were submitted to various tests to verify their influence on the capacity of the herpes simplex virus to infect and form plaques on monolayer cell cultures. To this purpose, a viral strain of herpes simplex Type 1 at suitable concentration was added to monolayers of Vero cells (Flow). After being in contact for 1 hour, the virus was removed and the monolayer washed and then covered with fresh culture medium […] (Flow), adding at the end suitable quantities of the substance under test. After 72 hours' incubation, the plates were coloured with neutral red and the visible plaques counted. […] Similar results were obtained with a peptide fraction isolated in an analogous manner after hydrolysis of lysozyme with trypsin and chymotrypsin. Even more surprising results were obtained with peptides such as (I) or (III) which resulted capable of inducing analogous reductions in the viral plaque-forming units at considerably lower concentrations (0.1-1 mg/ml).

Substance | solubility in water [1] | Δ% of the algogenic threshold ([2]; dose 0.5 mg/rat) | Δ% of the algogenic threshold ([2]; dose 0.75 mg/rat) | Δ% of the algogenic threshold ([2]; dose 1 mg/rat) | Δ% of the algogenic threshold ([2]; dose 2 mg/rat) | Δ% of the algogenic threshold ([2]; dose 4 mg/rat) | cytotoxic effects (cell colony-forming capacity) [3] | concentration inducing analogous reductions in the viral plaque-forming units [4] | inhibition of the viral capacity to form plaques ([4]; 5 mg/ml)
NTDGSTDY [peptide (II)] | very soluble in water | 30% | 60% | 90% | – | – | – | – | –
NTQATNR [peptide (III)] | – | – | – | 30% | 60% | 100% | devoid of cytotoxic effects | 0.1-1 mg/ml | –
NTQATNRNTDGSTDY [peptide (I)] | – | – | – | – | 120% | – | devoid of cytotoxic effects | 0.1-1 mg/ml | –
lysozyme: small globular protein of 129 amino acid residues extracted from hen egg-white | – | – | – | – | – | – | – | – | 75%
